Assay results published in patent publication US7579322B2, “Compositions and methods for promoting myocardial and peripheral angiogenesis” (Zimmer Orthobiologics, Inc., priority 2001, dated 2009).
Ends that are not written are not given here.

Legend:
[1] = system: human smooth muscle cells; assay: In vitro cell migration assay (chemotaxis tray), smooth muscle cells; type: cell-based; conditions: compared to controls; 4 hours incubation
Procedure: (§1) The ability of IGD-motif peptides according to the present invention to promote cell migration of human endothelial and smooth muscle cells, which are processes characteristic of angiogenesis, was evaluated by conducting cell migration assays for the peptides of SEQ ID NOS 1 and 2, and a scramble of the IGD peptide characterized by the DIG sequence. A capped version of the scramble characterized by the GGDIGGG (SEQ ID NO:7) sequence was also tested.
(§2) Chemotaxis trays (Chemo Tx disposable migration chamber, 6 mm diameter, 300 μl/well, 96 wells with 8 μm filter membranes from Neuro Probe, Inc., Gaithersville, Md.) for evaluating cell migration of the peptides were sterilized by placing the trays under UV light overnight. Further operations with the membrane were carried out under aseptic conditions. The filter membranes were loaded with gelatin to provide a suitable environment for the cells testing by soaking in 3% acetic acid overnight and then for 2 hours in 0.1 mg/ml gelatin. They were then rinsed in sterile water and allowed to air dry. Such membranes may be stored at room temperature for up to 1 month.
The cells to be used in the assay (endothelial cells or smooth muscle cells) were starved for 24 hours before use in appropriate culture media containing 0.1% Fetal Bovine Serum (“FBS”) instead of the customary 10% FBS serum, and 1× penicillin-streptomycin antibiotics. The wells of the 96 well chamber of the chemotaxis unit were filled with media containing 0.1% serum alone or 0.1% serum and the test material (control or chemoattractant respectively). […]
After incubation the lid was removed and with the filter still in place the cells on the upper surface of the membrane were gently wiped off and washed by carefully flushing the top surface of the filter with media by holding the plate with filter at a 45° angle over a container. […] The membrane was then allowed to dry and the number of cells that migrated through the filter pores was determined by counting the number in a field under a light microscope.

[2] = system: human aortic endothelial cells; assay: In vitro cell migration assay (chemotaxis tray / modified Boyden chamber), endothelial cells; type: cell-based; conditions: for migration of human aortic endothelial cells: compared to negative control / scramble peptides, 4 hours incubation
Procedure: as §1, §2
The cells to be used in the assay (endothelial cells or smooth muscle cells) were starved for 24 hours before use in appropriate culture media containing 0.1% Fetal Bovine Serum (“FBS”) instead of the customary 10% FBS serum, and 1× penicillin-streptomycin antibiotics. The wells of the 96 well chamber of the chemotaxis unit were filled with media containing 0.1% serum alone or 0.1% serum and the test material (control or chemoattractant respectively). The filter membrane was positioned over the plate, aligning the holes in the corners of the frame with the four pins on the microplate, and the membrane was snapped into place making sure that the media in the wells touched the membrane completely. Fifty (50) μl of cell suspension in the starvation-media, at a concentration of 4×10^4 viable cells per charge were plated onto each site (over each well). The plate was incubated at 37° C. in an atmosphere of 5% CO2 for 4 hours.
After incubation the lid was removed and with the filter still in place the cells on the upper surface of the membrane were gently wiped off and washed by carefully flushing the top surface of the filter with media by holding the plate with filter at a 45° angle over a container. The cells on the undersurface of the membrane were then fixed in methanol (˜20 minutes) and stain with Diff-Quik Staining Set. The membrane was then allowed to dry and the number of cells that migrated through the filter pores was determined by counting the number in a field under a light microscope.

[3] = system: quail chorioallantoic membrane (CAM); assay: Quail chorioallantoic membrane (CAM) angiogenesis assay; type: in vivo, Japanese quail (cotumix cotumix japonica); conditions: for angiogenesis / increase in blood vessels in quail CAM: 24 hours incubation, compared to controls / scramble peptides
Procedure: The activity of IGD-motif peptides for inducing migration and proliferation in endothelial or smooth muscle cells in an in vitro quail chorioallantoic membrane (CAM) model was assayed in a similar manner to that described by Parsons-Wingerter et al., Microvascular Research 55:201-214 (1998), the disclosure of which is hereby incorporated herein by reference. Briefly, fertilized Japanese quail eggs (cotumix cotumix japonica) were opened onto petri dishes on day 3 post-incubation. After 7 days of culture, the four IGD-motif peptides tested in Examples 1 and 2 (IGD, GGIGD (residues 1-5 of SEQ ID NO:2), DIG, GGDIGGG (SEQ ID NO: 7)) each dissolved in 1% polyvinyl pyrrolidine prewarmed to 37° C., were distributed evenly onto the surface of a CAM in separate petri dishes. After 24 hours of incubation, the CAM's were fixed, dissected and photographed at 10× magnification to visualize the arterial vascular tree, including endstage vessels. Digital images of triplicate CAM specimens were acquired at 10× magnification in grayscale, binarized to black-and-white, and skeletonized. The vessel branching pattern was analyzed and quantified by the fractal dimension.

[4] = system: human aortic endothelial cells; assay: In vitro cell proliferation assay (CyQuant); type: cell-based; conditions: for proliferation of human aortic endothelial cells: compared to controls, 48 hours, two different concentrations
Procedure: The capacity of IGD-motif peptides according to the present invention to promote […] of human aortic endothelial cells was evaluated by conducting in vitro cell proliferation assays for the peptide of SEQ ID NOS 1 and 2, the DIG scramble peptide, and the capped version of the scramble, GGDIGGG (SEQ ID NO:7). Human aortic endothelial cells grown to ˜95% confluency were seeded (5000 cells/well) in growth medium for four hours to allow cells to adhere. The cells were then transferred to the starvation medium described in Example 1 and starved for about 18 hours. The cells were then transferred to starvation medium containing the test peptide, and the cells were allowed to proliferate for an additional 48 hours. The medium was then removed and the wells were washed with PBS. The cells were then subjected to a single freeze-thaw cycle. CyQuant reagent (Molecular Probes, Eugene, Oreg.) was then added to the cells according to the manufacturer's instructions and the cells incubated for 5 minutes in the dark. The intensity of the color—which is directly proportional to the number of cells—is read at an excitation wavelength of 485 nm and the emission wavelength set at 535 nm.

dermal fibroblasts = conditions: cited from earlier work
rat wound healing model = conditions: under certain conditions; cited from earlier work

## GGDIGGG (not fully specified) [reference compound]
[1]
  cell migration of human smooth muscle cells: Neither the DIG scramble nor the capped GGDIGGG scramble (SEQ ID NO:7) showed cell migration significantly greater than controls
[2]
  migration of human aortic endothelial cells: Neither the DIG scramble nor the capped GGDIGGG scramble (SEQ ID NO:7) showed cell migration significantly greater than controls
[3]
  angiogenesis / increase in blood vessels in quail CAM: neither the DIG scramble nor the GGDIGGG (SEQ ID NO:7) capped scramble promoted angiogenesis significantly better than controls
[4]
  proliferation of human aortic endothelial cells: Neither the DIG scramble nor the capped GGDIGGG scramble (SEQ ID NO:7), in contrast, showed cell migration significantly greater than controls

## GGIGDGG (not fully specified) [Gly-Gly-Ile-Gly-Asp-Gly-Gly]
[1]
  cell migration of human smooth muscle cells: promoted cell migration
[2]; at a 10-fold lower concentration, FIG. 1A
  migration of human aortic endothelial cells compared to the uncapped peptide: better migration compared to the uncapped peptide
[2]
  migration of human aortic endothelial cells: increased migratory response
[2]; listed as SEQ ID NO. 2
  migration of human aortic endothelial cells: promoted cell migration
[3]
  angiogenesis / increase in blood vessels in quail CAM: promoted angiogenesis
[3]; listed as capped peptide
  angiogenesis / increase in blood vessels in quail CAM: increase in blood vessels
[3]; at equivalent concentrations, FIG. 3A
  blood vessel increase in quail CAM compared to the uncapped peptide: better than the uncapped peptide
[4]; FIG. 2
  proliferation response relative to the uncapped tripeptide: nearly twice that of the uncapped tripeptide
[4]
  proliferation of human aortic endothelial cells: promoted cell proliferation

## Ile-Gly-Asp (IGD; Cell-attachment-promoting peptide)
[1]
  cell migration of human smooth muscle cells: promoted cell migration
[2]; FIG. 1A
  optimal concentration for migration of human aortic endothelial cells: 100 μm
[2]
  migration of human aortic endothelial cells: increased migratory response
[2]; listed as IGD tripeptide
  migration of human aortic endothelial cells: dose dependent effect
[2]; listed as SEQ ID NO. 1
  migration of human aortic endothelial cells: promoted cell migration
Dermal fibroblasts
  cell migration of dermal fibroblasts: can induce cell migration
[3]
  angiogenesis / increase in blood vessels in quail CAM: promoted angiogenesis
[3]; listed as uncapped peptide
  angiogenesis / increase in blood vessels in quail CAM: increase in blood vessels
[4]
  proliferation of human aortic endothelial cells: promoted cell proliferation

## Ile-Gly-Asp-Ser (IGDS; Cell-attachment-promoting peptide)
Rat wound healing model
  fibroblast migration: increase
  vessel number: increase
